Measured values published in ChEMBL document CHEMBL1201862, “PubChem BioAssay data set” (2004).
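Cells were grown in 96-well plates and exposed to each compound for 48 hours at five concentrations; endpoints were interpolated linearly between bracketing concentrations, or set to the highest concentration if not reached. GI50 = concentration required for 50% inhibition of growth.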 The source made the active and inactive calls. No stated cut-off is given here; in the data, active = GI50 up to about 1.1 µM and inactive = higher.

Experiments:
Experiment in all cases: NCI-60 cell line screen, 48 h
786-0 = test system: 786-0
A498 = test system: A498
A549 = test system: A549
ACHN = test system: ACHN
BT-549 = test system: BT-549
CAKI-1 = test system: CAKI-1
CCRF-CEM = test system: CCRF-CEM
COLO 205 = test system: COLO 205
DU-145 = test system: DU-145
EKVX = test system: EKVX
HCC 2998 = test system: HCC 2998
HCT-116 = test system: HCT-116
HCT-15 = test system: HCT-15
HL-60 = test system: HL-60
HOP-62 = test system: HOP-62
HOP-92 = test system: HOP-92
HT-29 = test system: HT-29
Hs-578T = test system: Hs-578T
IGROV-1 = test system: IGROV-1
K562 = test system: K562
KM12 = test system: KM12
LOX IMVI = test system: LOX IMVI
M14 = test system: M14
MCF7 = test system: MCF7
MDA-MB-231 = test system: MDA-MB-231
MDA-MB-435 = test system: MDA-MB-435
MDA-N = test system: MDA-N
MOLT-4 = test system: MOLT-4
Malme-3M = test system: Malme-3M
NCI-H226 = test system: NCI-H226
NCI-H23 = test system: NCI-H23
NCI-H460 = test system: NCI-H460
NCI-H522 = test system: NCI-H522
NCI/ADR-RES = test system: NCI/ADR-RES
OVCAR-3 = test system: OVCAR-3
OVCAR-4 = test system: OVCAR-4
OVCAR-5 = test system: OVCAR-5
OVCAR-8 = test system: OVCAR-8
PC-3 = test system: PC-3
RPMI-8226 = test system: RPMI-8226
RXF 393 = test system: RXF 393
SF-268 = test system: SF-268
SF-295 = test system: SF-295
SF-539 = test system: SF-539
SK-MEL-28 = test system: SK-MEL-28
SK-MEL-2 = test system: SK-MEL-2
SK-MEL-5 = test system: SK-MEL-5
SK-OV-3 = test system: SK-OV-3
SN12C = test system: SN12C
SNB-19 = test system: SNB-19
SNB-75 = test system: SNB-75
SR = test system: SR
SW-620 = test system: SW-620
T47D = test system: T47D
TK-10 = test system: TK-10
U-251 = test system: U-251
UACC-257 = test system: UACC-257
UACC-62 = test system: UACC-62
UO-31 = test system: UO-31

COc1cc(C2c3cc4c(cc3OC(N3CCCCC3)C2C)OCO4)cc(OC)c1O (stereo not drawn)
GI50 (786-0): 8.77 µM (inactive)
GI50 (A498): 10.9 µM (inactive)
GI50 (A549): 10.7 µM (inactive)
GI50 (ACHN): 8.57 µM (inactive)
GI50 (BT-549): 10.5 µM (inactive)
GI50 (CAKI-1): 12 µM (inactive)
GI50 (CCRF-CEM): 3.4 µM (inactive)
GI50 (COLO 205): 17.7 µM (inactive)
GI50 (DU-145): 19.5 µM (inactive)
GI50 (EKVX): 26.1 µM (inactive)
GI50 (HCC 2998): 12.2 µM (inactive)
GI50 (HCT-116): 4.59 µM (inactive)
GI50 (HCT-15): 11.6 µM
GI50 (HL-60): 4.15 µM (inactive)
GI50 (HOP-62): 6.78 µM (inactive)
GI50 (HOP-92): 15 µM (inactive)
GI50 (HT-29): 8.75 µM (inactive)
GI50 (Hs-578T): 7.53 µM (inactive)
GI50 (IGROV-1): 9.98 µM (inactive)
GI50 (K562): 4.06 µM (inactive)
GI50 (KM12): 5.89 µM (inactive)
GI50 (LOX IMVI): 9.77 µM (inactive)
GI50 (M14): 9.42 µM (inactive)
GI50 (MCF7): 5.33 µM (inactive)
GI50 (MDA-MB-231): 9.38 µM (inactive)
GI50 (MDA-MB-435): 2.21 µM (inactive)
GI50 (MDA-N): 2.14 µM (inactive)
GI50 (MOLT-4): 6.12 µM (inactive)
GI50 (Malme-3M): 4.36 µM (inactive)
GI50 (NCI-H226): 21.9 µM (inactive)
GI50 (NCI-H23): 18.7 µM (inactive)
GI50 (NCI-H460): 6.64 µM (inactive)
GI50 (NCI-H522): 3.67 µM (inactive)
GI50 (NCI/ADR-RES): 4.57 µM (inactive)
GI50 (OVCAR-3): 6.12 µM (inactive)
GI50 (OVCAR-4): 17.3 µM (inactive)
GI50 (OVCAR-5): 20.1 µM (inactive)
GI50 (OVCAR-8): 13.4 µM (inactive)
GI50 (PC-3): 7.91 µM (inactive)
GI50 (RPMI-8226): 9.35 µM (inactive)
GI50 (RXF 393): 14.5 µM (inactive)
GI50 (SF-268): 13.8 µM (inactive)
GI50 (SF-295): 3.7 µM (inactive)
GI50 (SF-539): 9.64 µM (inactive)
GI50 (SK-MEL-28): 9.89 µM (inactive)
GI50 (SK-MEL-2): 7.73 µM (inactive)
GI50 (SK-MEL-5): 5.7 µM (inactive)
GI50 (SK-OV-3): 5.89 µM (inactive)
GI50 (SN12C): 11.4 µM (inactive)
GI50 (SNB-19): 16.3 µM (inactive)
GI50 (SNB-75): 2.96 µM (inactive)
GI50 (SR): 4.82 µM (inactive)
GI50 (SW-620): 5.31 µM (inactive)
GI50 (T47D): 11.7 µM (inactive)
GI50 (TK-10): 16.4 µM (inactive)
GI50 (U-251): 9.71 µM (inactive)
GI50 (UACC-257): 13.4 µM (inactive)
GI50 (UACC-62): 4.23 µM (inactive)
GI50 (UO-31): 15 µM (inactive)

ClC1=C(Cl)C(Cl)(Cl)SS1
GI50 (786-0): > 4.41 µM (inactive)
GI50 (A498): > 10 µM (inactive)
GI50 (A549): > 10 µM (inactive)
GI50 (ACHN): 5.98 µM (inactive)
GI50 (BT-549): > 8.73 µM (inactive)
GI50 (CAKI-1): 2.96 µM (inactive)
GI50 (CCRF-CEM): 0.879 µM (active)
GI50 (COLO 205): 1.98 µM (inactive)
GI50 (DU-145): > 10 µM (inactive)
GI50 (EKVX): > 10 µM (inactive)
GI50 (HCC 2998): > 10 µM (inactive)
GI50 (HCT-116): > 4.57 µM (inactive)
GI50 (HCT-15): > 7.82 µM
GI50 (HL-60): 2.24 µM (inactive)
GI50 (HOP-62): > 10 µM (inactive)
GI50 (HOP-92): > 5.57 µM (inactive)
GI50 (HT-29): > 10 µM (inactive)
GI50 (Hs-578T): > 10 µM (inactive)
GI50 (IGROV-1): > 7 µM (inactive)
GI50 (K562): 3.17 µM (inactive)
GI50 (KM12): > 10 µM (inactive)
GI50 (LOX IMVI): > 4.15 µM (inactive)
GI50 (M14): 3.8 µM (inactive)
GI50 (MCF7): > 5.27 µM (inactive)
GI50 (MDA-MB-231): > 10 µM (inactive)
GI50 (MDA-MB-435): > 10 µM (inactive)
GI50 (MDA-N): 9.68 µM (inactive)
GI50 (MOLT-4): 1.31 µM (inactive)
GI50 (Malme-3M): 3.15 µM (inactive)
GI50 (NCI-H226): > 10 µM (inactive)
GI50 (NCI-H23): > 10 µM (inactive)
GI50 (NCI-H460): > 10 µM (inactive)
GI50 (NCI-H522): 2.88 µM (inactive)
GI50 (NCI/ADR-RES): > 7.21 µM (inactive)
GI50 (OVCAR-3): > 5.56 µM (inactive)
GI50 (OVCAR-4): > 5.93 µM (inactive)
GI50 (OVCAR-5): > 10 µM (inactive)
GI50 (OVCAR-8): > 6.41 µM (inactive)
GI50 (PC-3): > 10 µM (inactive)
GI50 (RPMI-8226): 3.44 µM (inactive)
GI50 (RXF 393): > 10 µM (inactive)
GI50 (SF-268): > 10 µM (inactive)
GI50 (SF-295): > 10 µM (inactive)
GI50 (SF-539): > 10 µM (inactive)
GI50 (SK-MEL-28): > 10 µM (inactive)
GI50 (SK-MEL-2): > 10 µM (inactive)
GI50 (SK-MEL-5): > 7.01 µM (inactive)
GI50 (SK-OV-3): > 10 µM (inactive)
GI50 (SN12C): > 10 µM (inactive)
GI50 (SNB-19): > 10 µM (inactive)
GI50 (SNB-75): > 10 µM (inactive)
GI50 (SR): 1.73 µM (inactive)
GI50 (SW-620): 2.47 µM (inactive)
GI50 (T47D): 4.79 µM (inactive)
GI50 (TK-10): > 5.86 µM (inactive)
GI50 (U-251): > 10 µM (inactive)
GI50 (UACC-257): > 5.09 µM (inactive)
GI50 (UACC-62): > 10 µM (inactive)
GI50 (UO-31): > 4.47 µM (inactive)
